The source of these data is US20240207203A1, “NOVEL USE” (DSM IP Assets B.V., priority 2021, published 2024).

Assay [1] relates to methane production in ruminants. Conditions: reported in WO2012/084629; cited from earlier work.
In assay [2] the test system is methane production in rumen liquor. Description: In vitro test for methane production (modified Hohenheim Forage value Test, HFT). Type of assay: cell-based. As to conditions: TMR feed, 8 h at 39° C., average of four to eight experiments. The protocol: In vitro test for methane production: A modified version of the “Hohenheim Forage value Test (HFT)” was used for testing the effect of specific compounds on the rumen functions mimicked by this in-vitro system.
Principle: Feed is gadded into a syringe with a composition of rumen liquor and an appropriate mixture of buffers. The solution is incubated at 39° C. After 8 hours the quantity (and composition) of gas phase produced is measured and put into a formula for conversion.
Sample weighing: The feed stuff (i.e. TMR (44% concentrate, 6% hay, 37% maize silage and 13% grass silage) is sieved to 1 mm and weighed exactly into 64 syringes. 4 of these syringes are the substrate controls, which display the gas production without the effect of the tested compounds. 4 other syringes are positive control (3-NOP, 10 µM). When needed, 4 syringes contain a carrier control (if the test compounds need a carrier). The remaining syringes contain the test substances, by groups of 4 syringes, in the amounts as indicated in table 1.
Extraction of the rumen liquor: 750 ml of rumen liquor are added to approximately 1,400 ml of medium solution under continued agitation and CO2-gassing.
Filling the syringes, incubation and determining gas volumes and VFA values: The diluted rumen fluid (24 ml) is added to the glass syringe. The syringes are then incubated for 8 hours at 39° C. under gentle agitation. After 8 hours, the volume of gas produced is measured, and the percentage of methane in the gas phase is determined by gas chromatography.
The food fermented was artificial TMR (44% concentrate, 6% hay, 37% maize silage and 13% grass silage). Gossypol was obtained from Sigma-Aldrich (G8761), and used at a concentration as outlined in table 1.3-Nitrooxy-propanol (3-NOP) was used at the concentration as outlined in table 1. The respective in vitro data was linked to dosage regimes correlating to the same methane reduction in vivo.

Take `O=[N+]([O-])OCCCO` [3-NOP, 3-Nitrooxypropanol]: the “Reduction of methane production in ruminants (in words)” value in assay [1] is “significantly reduce the methane production”. Besides, the results for the “Total methane change, found” value in assay [2] (single substance at 2.5 μM), in assay [2] (single substance at 5 μM) and in assay [2] (single substance at 10 μM) were −12 % vs. control, −54 % vs. control and −98 % vs. control, respectively.
Take `Cc1cc2c(C(C)C)c(O)c(O)c(C=O)c2c(O)c1-c1c(C)cc2c(C(C)C)c(O)c(O)c(C=O)c2c1O` [G, Gossypol]: the “Total methane change, found” value in assay [2] (single substance at 5 μM) is reported as −1 % vs. control; in assay [2] (single substance at 10 μM) it was −11 % vs. control; in assay [2] (single substance at 20 μM), −15 % vs. control; in assay [2] (single substance at 100 μM), −69 % vs. control.
